Data reported in patent US12552737B2, “Salts of (2R, 6R)-hydroxynorketamine, their crystal forms, and methods of making the same” (THE UNITED STATES OF AMERICA, AS REPRESENTED BY THE …, priority 2019, dated 2026).

How the values were obtained:
[1] = Dynamic vapor sorption (DVS) sorption-desorption; assay type: physicochemical; conditions: for hygroscopicity: DVS, water, 25° C., 0% RH to 95% RH
Method: Dynamic Vapor Sorption (DVS)
Typically, 20-50 mg of the test substances were mounted in a gauze basket and transferred to the sample port. Excess static electricity was removed throughout sample handling and sample mounting using a 210Po static eliminator. Instrument performance checks were completed using traceable samples of sodium chloride and lithium chloride.

[2] = based on X-ray powder diffraction data
Method: X-Ray Powder Diffraction (XRPD)
X-ray powder diffractograms were acquired using a Bruker D5000 diffractometer in Bragg-Brentano configuration. Extended acquisition parameters were employed for each batch of the drug substance, as detailed below. • Acquisition parameters: • Source: CuKα • Wavelength: 1.5406 Å • Scan range: 2-40° (2θ) • Step size: 0.01° (2θ) • Time per step: 4.0 s • Divergence slit width: 2 mm • Antiscatter slit width: 2 mm • Detector slit width: 0.2 mm • Sample rotation: Engaged • Tube accelerating potential: 40 kV • Tube accelerating current: 30 mA • Temperature: Ambient (nominally 18-22° C.)
Approximately 2 mg of each sample was mounted on a silicon base for the analyses.
All the data were smoothed by use of Fourier algorithms and the background was subtracted from each diffractogram. Instrument performance checks were completed prior to measurements using a NIST traceable standard of corundum and also using a standard of Arkansas stone quartz.
Dynamic vapor sorption-desorption experiments were carried out using a DVS Resolution instrument supplied by Surface Measurement Systems. […]

| Structure (SMILES) | hygroscopicity [1] | hygroscopicity ([1]; listed as (2R,6R)-hydroxynorketamine malonate) | hygroscopicity ([1]; listed as (2R,6R)-hydroxynorketamine salicylate) | water acquired in DVS isotherm ([1]; over the entire range of relative humidities (0% RH to 95% RH)) | change of physical form on exposure to elevated relative humidities [2] |
| --- | --- | --- | --- | --- | --- |
| NC1(c2ccccc2Cl)CCCC(O)C1=O.O=C(O)CC(=O)O (stereo not drawn) [RR-HNK malonate, 2R,6R-hydroxynorketamine (RR-HNK) Malonate] | non-hygroscopic | very low hygroscopicity |  |  |  |
| N[C@@]1(c2ccccc2Cl)CCC[C@@H](O)C1=O.O=C(O)c1ccccc1O [RR-HNK salicylate, 2R,6R-hydroxynorketamine (RR-HNK) Salicylate] | non-hygroscopic |  | very low hygroscopicity | acquires very little water | does not change the physical form |
